Measured values taken from the pKa sets of Baltruschat and Czodrowski (2020).

Settings: acidic group

Row | Structure (SMILES) | pKa
1 | [NH3+]c1ccccc1O[C@H]1O[C@@H](C(=O)O)[C@H](O)[C@@H](O)[C@@H]1O | 3.3
2 | O=C1NC(=O)[C@@H]2CCC[C@H]12 | 9.53
3 | O=[N+]([O-])c1cccc(NS(=O)(=O)c2ccccc2)c1 | 6.91
4 | N#CC(Br)C#N | 5
5 | NC(=O)C(CC(=O)O)c1ccccc1 (centres undefined) | 4.23
6 | O=C([O-])[C@H]1O[C@@H]1C(=O)O | 3.25
7 | CCOC(=O)C1CCCCC1=O (centres undefined) | 11.9
8 | CC1=CC(=Nc2ccc(O)cc2)C=C(C)C1=O | 8.9
9 | C[NH+](C)Cc1cc([N+](=O)[O-])ccc1O | 5.75
10 | O=C(O)C1Cc2ccccc2O1 (centres undefined) | 3.25
11 | O=c1ccc(O)c(Br)cc1 | 4.9
12 | Cc1cc(Cc2cc(O)ccc2C)c(O)c([N+](=O)[O-])c1 | 7.93
13 | [NH3+][C@H]1CCC[C@@H](C(=O)O)C1 | 3.7
14 | O=C([O-])[C@@H]1O[C@H](Oc2ccc3[nH+]ccc(O)c3c2)[C@@H](O)[C@H](O)[C@H]1O | 3.7
15 | [NH3+]CCCCCC#CC#CCCC(=O)O | 4.17
16 | CC1=NS(=O)(=O)c2cccnc2N1 | 7.64
17 | C/C(=N\O)C(=O)NO | 7.74

Row | Structure (SMILES) | pKa
18 | COO | 11.5
19 | COC(=O)/C(=N/O)c1ccccc1 | 8.87
20 | Cc1ccc(S(N)(=O)=O)cc1C | 9.62
21 | NS(=O)(=O)c1ccc([N+](=O)[O-])cc1 | 8.63
22 | CC(C)C1NC(=S)NC1=O (centres undefined) | 8.7
23 | COc1cccc(C=O)c1O | 7.91
24 | ONc1cc[n+](O)c2ccccc12 | 3.89
25 | C[n+]1ccc(C(=O)c2ccccc2)cc1 | 12.2
26 | O=C(O)/C=C(\I)c1ccccc1 | 3.4
27 | C[NH2+]C(C)(C)C(=O)O | 2.2
28 | CC1(C)[C@H]2CC[C@@]1(C)[C@@H](O)[C@@H]2C(=O)O | 2.74
29 | CCOP(=O)([O-])NS(=O)(=O)c1ccccc1 | 6.5
30 | Oc1ccnc([Se-])[nH+]1 | 7.18
31 | O=[PH]([O-])C(NCc1ccccn1)c1ccccc1O (centres undefined) | 12
32 | CC(=O)NC(CS)C(=O)[O-] (centres undefined) | 9.62
33 | O=C(Oc1ccc([N+](=O)[O-])cc1[N+](=O)[O-])c1ccc(O)cc1 | 7.68
34 | O=C(O)c1ccc([N+](=O)[O-])s1 | 2.68

Same assay, conditions: basic group

Row | Structure (SMILES) | pKa
35 | [NH3+]CCc1cccnc1 | 4.64
36 | CCCCCCN(CCCCCC)c1ccccc1 | 4.89
37 | N/C(Cc1ccccc1)=N\O | 5.32
38 | CC[C@]12CCCN3CC[C@@]4(c5cccc(OC)c5N(C(C)=O)[C@H]4CC1)[C@@H]32 | 7.57
39 | Cc1ccc([N+](=O)[O-])c2c(NCCC[NH+](C)C)ccnc12 | 6.84
40 | NC(=O)Cc1ccncc1 | 5.08
41 | NC(=O)CN(CC[NH+](CC(N)=O)Cc1ccccc1O)Cc1ccccc1O | 1.89
42 | CC(C)(C)C1=CC(=C2C=CC=CC=C2)C=C(C(C)(C)C)C1=O | 4.48
43 | C[C@H]1CC[C@@H]2CCCN21 | 11.7
44 | Nc1ccc(Cl)c2ccccc12 | 3.4
45 | NNCCCc1ccccc1 | 7.2
46 | COc1ccc([N+](=O)[O-])c(CN)c1 | 8.72
47 | N=C(N)Nc1nc(N)nc(NC(N)=[NH2+])n1 | 7
48 | Cc1cc(C)ncn1 | 2.7
49 | S=C(/N=N/c1ccccc1)NNc1ccccc1 | 4.64
50 | CCc1ccncc1 | 5.94
51 | C#CCCCCCCN | 10.7
52 | CN(C)CCOC(C)(c1ccccc1)c1ccccc1 | 8.75
53 | CCOC(=O)c1cccnc1 | 3.2
54 | CN(C(=O)c1ccccc1)c1ccncc1 | 4.68
55 | COc1nc2ccccc2[nH]1 | 3.75
56 | COc1cccnc1 | 4.89
57 | Oc1ccccc1CN1CCCCC1 | 8.6
58 | CN(C)c1ccc(N2CCOCC2)cc1 | 5.7
59 | [O-]c1nc2ccccc2[nH]1 | 11.9

Row | Structure (SMILES) | pKa
60 | N/C(CC/C(N)=[NH+]/O)=N\O | 3.11
61 | Cc1cc([S-])[nH+]c([S-])n1 | 6.87
62 | OCCN1CCOCC1 | 7.18
63 | CN(C)c1ccc[nH+]c1 | -1.91
64 | C(=C/c1nnnn1-c1ccccc1)/c1ccccc1 | -2.81
65 | O=C(Cc1ccc2ccc3cccnc3c2n1)c1ccccc1 | 4.4
66 | CC(C)(N)C#N | 5.3
67 | Nc1cccc(-c2ccccc2)c1 | 4.28
68 | Nc1cccc2c([N+](=O)[O-])cccc12 | 2.8
69 | Cc1c(C(=O)[O-])sc2cc(Cn3ccnc3)ccc12 | 6.35
70 | Nc1ccc(Cl)cc1Cl | 2.07
71 | Clc1cncc(Cl)c1 | 0.55
72 | c1ccc(-c2nc3ccccc3s2)cc1 | 0.7
73 | O=[PH]([O-])C(NCc1ccccn1)c1ccccc1O (centres undefined) | 8.08
74 | Cc1ccc(OC(=O)CCCCN(C)C)cc1 | 9.87
75 | Cc1ccccc1/C=C/c1ccc(N(C)C)cc1 | 4.59
76 | Cc1cc(-c2ccccc2)n(-c2ccc(C(=O)O)cc2)n1 | 1.59
77 | [NH3+]c1ccc(-c2cnc(-c3ccc(Cl)cc3)o2)cc1 | 0.27
78 | Cn1cncc(-c2ccccc2)c1=O | 1.5
79 | Cc1ccc(S(=O)(=O)[N-]CCC(=N)N)cc1 | 10.8
80 | CN(C)CCCN(C)CCCN(C)C | 10
81 | CCCCCCN(CCO)CC(C)O (centres undefined) | 9
82 | CCCSS/C(CCO)=C(/C)N(C=O)Cc1cnc(C)nc1N | 5.52
83 | COc1ccc(CN2CC(O[Si](C)(C)C)C2)cc1 | 8.17
84 | CC1=C[C@H]2CC[C@@H](O)[C@H]2N1C | 11.7
